According to ChEMBL document CHEMBL1909046, “DrugMatrix in vitro pharmacology data”:

How the values were obtained:
[1] = DRUGMATRIX: ATPase, Na+/K+ enzyme inhibition (substrate: ATP); type: tissue-based, Sus scrofa, Heart; details: Not Active = under 50% inhibition at 10 µM
[2] = biological target: 5-hydroxytryptamine receptor 1B (Rattus norvegicus, UniProt P28564); type: cell membranes, Wistar, Cerebral cortex, Membrane; also: in other assays of this panel Not Active means under 50% inhibition at 10 µM
[3] = biological target: Tyrosine-protein kinase Lck (Homo sapiens, UniProt P06239); experiment: DRUGMATRIX: Protein Tyrosine Kinase, LCK enzyme inhibition (substrate: Poly(Glu:Tyr)); type: cell-based, Insect cells; details: insect cells; Not Active = under 50% inhibition at 10 µM
[4] = biological target: C-C chemokine receptor type 2 (Homo sapiens, UniProt P41597); type: cell membranes, CHO-K1, Membrane; details: cho-k1; also: in other assays of this panel Not Active means under 50% inhibition at 10 µM
[5] = biological target: T1, C-X-C chemokine receptor type 2 (Homo sapiens, UniProt P25025); type: cell membranes, Membrane; details: cho-k1; also: in other assays of this panel Not Active means under 50% inhibition at 10 µM
T1 sequence (P25025 whole entry): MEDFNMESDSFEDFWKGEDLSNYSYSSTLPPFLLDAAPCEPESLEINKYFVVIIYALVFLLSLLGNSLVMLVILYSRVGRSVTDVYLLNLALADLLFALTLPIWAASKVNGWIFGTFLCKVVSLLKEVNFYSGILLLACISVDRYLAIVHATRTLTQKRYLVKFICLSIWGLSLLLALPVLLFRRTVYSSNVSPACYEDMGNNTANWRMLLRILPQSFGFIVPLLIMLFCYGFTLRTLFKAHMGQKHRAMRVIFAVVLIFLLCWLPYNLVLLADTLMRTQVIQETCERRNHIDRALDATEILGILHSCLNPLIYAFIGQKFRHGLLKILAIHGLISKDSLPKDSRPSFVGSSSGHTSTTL

[6] = DRUGMATRIX: GABAA, Chloride Channel, TBOB radioligand binding (ligand: [3H] TBOB); type: cell membranes, Rattus norvegicus, Wistar, Cerebral cortex, Membrane; details: Not Active = under 50% inhibition at 10 µM
[7] = biological target: T2, Cholecystokinin receptor type A (Homo sapiens, UniProt P32238); type: cell membranes, Membrane; details: 1321-n1; also: in other assays of this panel Not Active means under 50% inhibition at 10 µM
T2 sequence (P32238 whole entry): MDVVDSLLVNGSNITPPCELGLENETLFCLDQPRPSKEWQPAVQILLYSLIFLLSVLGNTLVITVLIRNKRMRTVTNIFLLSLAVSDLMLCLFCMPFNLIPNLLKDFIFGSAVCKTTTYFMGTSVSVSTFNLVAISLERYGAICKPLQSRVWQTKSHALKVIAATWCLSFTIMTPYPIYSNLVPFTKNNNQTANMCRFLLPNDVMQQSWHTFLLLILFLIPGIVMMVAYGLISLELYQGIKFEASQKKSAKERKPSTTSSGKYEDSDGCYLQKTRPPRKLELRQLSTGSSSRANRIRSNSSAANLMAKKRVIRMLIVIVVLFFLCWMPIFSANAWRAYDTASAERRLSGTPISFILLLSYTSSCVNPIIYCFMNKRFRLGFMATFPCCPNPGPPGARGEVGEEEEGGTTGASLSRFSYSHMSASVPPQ

5-hydroxytryptamine receptor 1B, sequence (P28564 whole entry): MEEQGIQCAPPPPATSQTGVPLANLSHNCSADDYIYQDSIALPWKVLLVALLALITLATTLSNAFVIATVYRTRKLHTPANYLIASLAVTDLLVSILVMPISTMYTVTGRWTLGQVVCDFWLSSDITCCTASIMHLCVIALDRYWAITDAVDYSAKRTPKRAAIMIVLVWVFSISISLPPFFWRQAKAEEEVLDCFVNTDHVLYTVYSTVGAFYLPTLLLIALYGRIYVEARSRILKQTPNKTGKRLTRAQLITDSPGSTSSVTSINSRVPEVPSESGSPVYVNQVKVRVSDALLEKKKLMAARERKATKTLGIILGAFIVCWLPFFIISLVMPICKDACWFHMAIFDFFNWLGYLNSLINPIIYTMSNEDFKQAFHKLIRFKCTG
C-C chemokine receptor type 2, sequence (P41597 whole entry): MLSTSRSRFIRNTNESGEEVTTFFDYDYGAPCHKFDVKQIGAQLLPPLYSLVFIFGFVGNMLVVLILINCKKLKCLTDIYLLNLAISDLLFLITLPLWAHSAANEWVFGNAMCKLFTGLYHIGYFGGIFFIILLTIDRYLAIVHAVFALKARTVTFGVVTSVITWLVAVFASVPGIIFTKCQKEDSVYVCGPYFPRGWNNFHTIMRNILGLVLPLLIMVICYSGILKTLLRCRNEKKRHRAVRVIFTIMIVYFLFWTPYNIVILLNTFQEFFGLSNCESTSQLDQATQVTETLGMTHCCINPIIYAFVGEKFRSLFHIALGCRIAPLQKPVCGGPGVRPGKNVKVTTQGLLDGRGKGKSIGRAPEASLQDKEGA
Tyrosine-protein kinase Lck, sequence (P06239 whole entry): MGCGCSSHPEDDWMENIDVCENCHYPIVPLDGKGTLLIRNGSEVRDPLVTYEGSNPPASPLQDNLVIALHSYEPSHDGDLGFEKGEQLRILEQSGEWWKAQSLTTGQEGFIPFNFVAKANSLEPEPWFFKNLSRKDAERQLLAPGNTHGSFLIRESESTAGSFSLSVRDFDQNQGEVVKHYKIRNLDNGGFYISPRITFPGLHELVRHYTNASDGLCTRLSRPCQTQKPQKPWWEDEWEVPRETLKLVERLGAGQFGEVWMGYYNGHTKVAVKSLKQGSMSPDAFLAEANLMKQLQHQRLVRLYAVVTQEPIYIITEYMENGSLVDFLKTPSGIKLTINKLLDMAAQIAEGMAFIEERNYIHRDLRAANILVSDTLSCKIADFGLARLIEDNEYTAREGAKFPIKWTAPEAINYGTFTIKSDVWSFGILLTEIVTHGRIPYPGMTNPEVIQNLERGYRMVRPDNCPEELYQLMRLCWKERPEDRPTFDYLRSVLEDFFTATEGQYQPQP

NC[C@@H]1O[C@H](O[C@H]2[C@@H](O)[C@H](O[C@@H]3[C@@H](O)[C@H](N)C[C@H](N)[C@H]3O[C@H]3O[C@H](CN)[C@@H](O)[C@H](O)[C@H]3N)O[C@@H]2CO)[C@H](N)[C@@H](O)[C@@H]1O [FRAMYCETIN]
Not Active: IC50 [1] | Ki [1] | IC50 [2] | IC50 [3] | IC50 [4] | IC50 [5] | IC50 [6] | Ki [6] | IC50 [7]

C[C@H]([C@](O)(Cn1cncn1)c1ccc(F)cc1F)S(C)(=O)=O [GENACONAZOLE]
Not Active: IC50 [1] | Ki [1] | IC50 [2] | IC50 [3] | IC50 [4] | IC50 [5] | IC50 [6] | Ki [6] | IC50 [7]

Cc1cnc(C(=O)NCCc2ccc(S(=O)(=O)NC(=O)NC3CCCCC3)cc2)cn1 [GLIPIZIDE]
Not Active: IC50 [1] | Ki [1] | IC50 [2] | IC50 [3] | IC50 [4] | IC50 [5] | IC50 [6] | Ki [6] | IC50 [7]

Cc1c(F)c(N2CCNC(C)C2)cc2c1c(=O)c(C(=O)O)cn2C1CC1 (stereo unspecified) [GREPAFLOXACIN]
Not Active: IC50 [1] | Ki [1] | IC50 [2] | IC50 [3] | IC50 [4] | IC50 [5] | IC50 [6] | Ki [6] | IC50 [7]

COc1ccccc1OCC(O)CO (stereo unspecified) [GUAIFENESIN]
Not Active: IC50 [1] | Ki [1] | IC50 [2] | IC50 [3] | IC50 [4] | IC50 [5] | IC50 [6] | Ki [6] | IC50 [7]

N=C(N)N/N=C/c1c(Cl)cccc1Cl [GUANABENZ]
Not Active: IC50 [1] | Ki [1] | IC50 [2] | IC50 [3] | IC50 [4] | IC50 [5] | IC50 [6] | Ki [6] | IC50 [7]

C[C@]12CCC(=O)C=C1CC[C@@H]1[C@@H]2[C@@H](O)C[C@@]2(C)[C@H]1CC[C@]2(O)C(=O)CO [HYDROCORTISONE]
Not Active: IC50 [1] | Ki [1] | IC50 [2] | IC50 [3] | IC50 [4] | IC50 [5] | IC50 [6] | Ki [6] | IC50 [7]

C/C=C\c1ccc(O)c(OC)c1 [ISOEUGENOL]
Not Active: IC50 [1] | Ki [1] | IC50 [2] | IC50 [3] | IC50 [4] | IC50 [5] | IC50 [6] | Ki [6] | IC50 [7]

NC[C@H]1O[C@H](O[C@H]2[C@H](O)[C@@H](O[C@H]3O[C@H](CO)[C@@H](O)[C@H](N)[C@H]3O)[C@H](N)C[C@@H]2N)[C@H](O)[C@@H](O)[C@@H]1O [KANAMYCIN]
Not Active: IC50 [1] | Ki [1] | IC50 [2] | IC50 [3] | IC50 [4] | IC50 [5] | IC50 [6] | Ki [6] | IC50 [7]

CC[C@H](C)C(=O)O[C@H]1C[C@@H](C)C=C2C=C[C@H](C)[C@H](CC[C@@H]3C[C@@H](O)CC(=O)O3)[C@H]21 [LOVASTATIN]
Not Active: IC50 [1] | Ki [1] | IC50 [2] | IC50 [3] | IC50 [4] | IC50 [5] | IC50 [6] | Ki [6] | IC50 [7]

CC(C(=O)O)c1ccc(CC2CCCC2=O)cc1 (stereo unspecified) [LOXOPROFEN]
Not Active: IC50 [1] | Ki [1] | IC50 [2] | IC50 [3] | IC50 [4] | IC50 [5] | IC50 [6] | Ki [6] | IC50 [7]

Cc1cccc(Nc2ccccc2C(=O)O)c1C [MEFENAMIC ACID]
Not Active: IC50 [1] | Ki [1] | IC50 [2] | IC50 [3] | IC50 [4] | IC50 [5] | IC50 [6] | Ki [6] | IC50 [7]

CC(=O)O[C@]1(C(C)=O)CC[C@H]2[C@@H]3C=C(C)C4=CC(=O)CC[C@]4(C)[C@H]3CC[C@@]21C [MEGESTROL ACETATE]
Not Active: IC50 [1] | Ki [1] | IC50 [2] | IC50 [3] | IC50 [4] | IC50 [5] | IC50 [6] | Ki [6] | IC50 [7]

COc1ccccc1OCC(O)COC(N)=O (stereo unspecified) [METHOCARBAMOL]
Not Active: IC50 [1] | Ki [1] | IC50 [2] | IC50 [3] | IC50 [4] | IC50 [5] | IC50 [6] | Ki [6] | IC50 [7]

CN(Cc1cnc2nc(N)nc(N)c2n1)c1ccc(C(=O)N[C@@H](CCC(=O)O)C(=O)O)cc1 [METHOTREXATE]
Not Active: IC50 [1] | Ki [1] | IC50 [2] | IC50 [3] | IC50 [4] | IC50 [5] | IC50 [6] | Ki [6] | IC50 [7]

COC(=O)c1ccccc1O [METHYL SALICYLATE]
Not Active: IC50 [1] | Ki [1] | IC50 [2] | IC50 [3] | IC50 [4] | IC50 [5] | IC50 [6] | Ki [6] | IC50 [7]

COc1ccc2cc(CCC(C)=O)ccc2c1 [NABUMETONE]
Not Active: IC50 [1] | Ki [1] | IC50 [2] | IC50 [3] | IC50 [4] | IC50 [5] | IC50 [6] | Ki [6] | IC50 [7]

O=C(O)c1cccnc1 [NIACIN]
Not Active: IC50 [1] | Ki [1] | IC50 [2] | IC50 [3] | IC50 [4] | IC50 [5] | IC50 [6] | Ki [6] | IC50 [7]

CNC(=C[N+](=O)[O-])NCCSCc1csc(CN(C)C)n1 [NIZATIDINE]
Not Active: IC50 [1] | Ki [1] | IC50 [2] | IC50 [3] | IC50 [4] | IC50 [5] | IC50 [6] | Ki [6] | IC50 [7]
